Experimental data: US12497365B2, “4-pyridinyl formamide compound or derivative thereof, preparation method therefor, herbicidal composition and use thereof” (Qingdao Kingagroot Chemical Compound Co., Ltd., priority 2019, dated 2025)

Columns and labels:
Test in all cases: Weeding effect in post-emergence stage
Format in all cases: in vivo
Conditions in all cases: active ingredient 2000 g/ha, 3 weeks after application, fresh weight control rate
[1] = system: Amaranthus retroflexus L.
In short: (§1)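 Post-emergence spray, 2-3 leaf stage; acetone/Tween 80 formulation + methyl oleate EC synergist (1.5 liter/ha); 125-2000 g/ha via spray tower. Greenhouse, 3 wk. Read-out: fresh weight growth control rate, graded by activity level.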

Chenopodium album = system: Chenopodium album
In short: as §1

Descurainia sophia = system: Descurainia sophia
In short: as §1

Abutilon theophrasti = system: Abutilon theophrasti
In short: as §1

Compound | Weeding effect, activity level (growth control rate), Amaranthus retroflexus L. [1] | Weeding effect, activity level (growth control rate), Chenopodium album (Chenopodium album) | Weeding effect, activity level (growth control rate), Descurainia sophia (Descurainia sophia) | Weeding effect, activity level (growth control rate), Abutilon theophrasti (Abutilon theophrasti)
Cn1nnnc1NC(=O)c1ccnc(-c2ccc3c(c2)sc2ccccc23)c1Cl [Compound 1-118] | 5 (Level 5: growth control rate is above 85%) | 5 (Level 5: growth control rate is above 85%) | 5 (Level 5: growth control rate is above 85%) | 5 (Level 5: growth control rate is above 85%)
Cc1cncc(-c2nccc(C(=O)Nc3nnnn3C)c2Cl)c1 [Compound 1-126] | 5 (Level 5: growth control rate is above 85%) | 5 (Level 5: growth control rate is above 85%) | 5 (Level 5: growth control rate is above 85%) | 5 (Level 5: growth control rate is above 85%)
Cn1nc(C(F)(F)F)cc1-c1nccc(C(=O)Nc2nnnn2C)c1Cl [Compound 1-180] | 5 (Level 5: growth control rate is above 85%) | 5 (Level 5: growth control rate is above 85%) | 5 (Level 5: growth control rate is above 85%) | 5 (Level 5: growth control rate is above 85%)
CC(C)Sc1ccc(-c2nccc(C(=O)Nc3nnnn3C)c2Cl)cc1 [Compound 1-43] | 5 (Level 5: growth control rate is above 85%) | 5 (Level 5: growth control rate is above 85%) | 5 (Level 5: growth control rate is above 85%) | 5 (Level 5: growth control rate is above 85%)
Cn1nnnc1NC(=O)c1ccnc(-c2ccc(Cl)cc2Cl)c1Cl [Compound 1-86] | 5 (Level 5: growth control rate is above 85%) | 5 (Level 5: growth control rate is above 85%) | 5 (Level 5: growth control rate is above 85%) | 5 (Level 5: growth control rate is above 85%)
Cn1nnnc1NC(=O)c1ccnc(-c2cccc(Cl)c2F)c1Cl [Compound 1-93] | 5 (Level 5: growth control rate is above 85%) | 5 (Level 5: growth control rate is above 85%) | 5 (Level 5: growth control rate is above 85%) | 5 (Level 5: growth control rate is above 85%)
Cn1nnnc1NC(=O)c1ccnc(-c2ccc(CBr)cc2)c1Cl [Compound 1-24] | 5 (Level 5: growth control rate is above 85%) | 5 (Level 5: growth control rate is above 85%) | 5 (Level 5: growth control rate is above 85%) | 5 (Level 5: growth control rate is above 85%)
COc1cccc(F)c1-c1nccc(C(=O)Nc2nnnn2C)c1Cl [Compound 1-70] | 5 (Level 5: growth control rate is above 85%) | 5 (Level 5: growth control rate is above 85%) | 5 (Level 5: growth control rate is above 85%) | 5 (Level 5: growth control rate is above 85%)
C=Cc1c(C(=O)Nc2nnnn2C)ccnc1-c1ccc(F)cc1 [Compound 1-218] | 5 (Level 5: growth control rate is above 85%) | 5 (Level 5: growth control rate is above 85%) | 5 (Level 5: growth control rate is above 85%) | 5 (Level 5: growth control rate is above 85%)
CCC[S+]([O-])c1nccc(C(=O)Nc2nnnn2C)c1Cl (stereo not shown) [Compound 1-2070] | 5 (Level 5: growth control rate is above 85%) | 5 (Level 5: growth control rate is above 85%) | 5 (Level 5: growth control rate is above 85%) | 5 (Level 5: growth control rate is above 85%)
COc1nccc(C(=O)Nc2nnnn2C)c1Cl [Compound 1-2061] | 5 (Level 5: growth control rate is above 85%) | 5 (Level 5: growth control rate is above 85%) | 5 (Level 5: growth control rate is above 85%) | 5 (Level 5: growth control rate is above 85%)
Cn1nnnc1NC(=O)c1ccnc(-c2ccccc2O)c1Cl [Compound 1-34] | 5 (Level 5: growth control rate is above 85%) | 5 (Level 5: growth control rate is above 85%) | 5 (Level 5: growth control rate is above 85%) | 5 (Level 5: growth control rate is above 85%)
Cn1nnnc1NC(=O)c1ccnc(-c2ccc(Oc3ccccc3)c(Cl)c2)c1Cl [Compound 1-107] | 5 (Level 5: growth control rate is above 85%) | 5 (Level 5: growth control rate is above 85%) | 5 (Level 5: growth control rate is above 85%) | 5 (Level 5: growth control rate is above 85%)
Cn1nnnc1NC(=O)c1ccnc(-c2ccc(Br)nc2)c1Cl [Compound 1-131] | 5 (Level 5: growth control rate is above 85%) | 5 (Level 5: growth control rate is above 85%) | 5 (Level 5: growth control rate is above 85%) | 5 (Level 5: growth control rate is above 85%)
Cn1nnnc1NC(=O)c1ccnc(-c2cc(F)cc(F)c2)c1Cl [Compound 1-65] | 5 (Level 5: growth control rate is above 85%) | 5 (Level 5: growth control rate is above 85%) | 5 (Level 5: growth control rate is above 85%) | 5 (Level 5: growth control rate is above 85%)
Cn1nnnc1NC(=O)c1ccnc(-c2cncc(N)c2)c1Cl [Compound 1-145] | 5 (Level 5: growth control rate is above 85%) | 5 (Level 5: growth control rate is above 85%) | 5 (Level 5: growth control rate is above 85%) | 5 (Level 5: growth control rate is above 85%)
O=C(Nc1ncco1)c1ccnc(-c2ccc(F)cc2)c1Cl [Compound 1-1607] | 5 (Level 5: growth control rate is above 85%) | 5 (Level 5: growth control rate is above 85%) | 5 (Level 5: growth control rate is above 85%) | 5 (Level 5: growth control rate is above 85%)
Cc1c(-c2nccc(C(=O)Nc3nnnn3C)c2Cl)cnn1C [Compound 1-170] | 5 (Level 5: growth control rate is above 85%) | 5 (Level 5: growth control rate is above 85%) | 5 (Level 5: growth control rate is above 85%) | 5 (Level 5: growth control rate is above 85%)
Cn1nnnc1NC(=O)c1ccnc(-c2ccc(F)c(Cl)c2)c1Cl [Compound 1-92] | 5 (Level 5: growth control rate is above 85%) | 5 (Level 5: growth control rate is above 85%) | 5 (Level 5: growth control rate is above 85%) | 5 (Level 5: growth control rate is above 85%)
Cn1nnnc1NC(=O)c1ccnc(-c2ccc(F)nc2F)c1Cl [Compound 1-135] | 5 (Level 5: growth control rate is above 85%) | 5 (Level 5: growth control rate is above 85%) | 5 (Level 5: growth control rate is above 85%) | 5 (Level 5: growth control rate is above 85%)
Cn1nnnc1NC(=O)c1ccnc(-c2ccc(CNC(=O)OC(C)(C)C)s2)c1Cl [Compound 1-2004] | 5 (Level 5: growth control rate is above 85%) | 5 (Level 5: growth control rate is above 85%) | 5 (Level 5: growth control rate is above 85%) | 5 (Level 5: growth control rate is above 85%)
Cc1nc(F)ccc1-c1nccc(C(=O)Nc2nnnn2C)c1Cl [Compound 1-137] | 5 (Level 5: growth control rate is above 85%) | 5 (Level 5: growth control rate is above 85%) | 5 (Level 5: growth control rate is above 85%) | 5 (Level 5: growth control rate is above 85%)
